Data published in paper PMC5413024, “Mechanistic insights into the more potent effect of KP-54 compared to KP-10 in vivo” (PLoS ONE, 2017).
≈ marks a conversion by molar mass, not a printed value.

Assays:
[1] = men / humans; ref [5], [30] (KP-10), ref [5] (KP-54); cited from earlier work
Source text: It should be noted, however that the RIA used to measure KP-54 may also detect shorter breakdown products of this protein that might be biologically inert. It is likely that the lack of GnRH neuronal activation and sustained LH release by KP-10 is mainly due to its instability. It is noteworthy that we failed ...

[2] = from the product data sheets; ref product data sheets (manufacturer); cited from earlier work
Method: KP-10 [human Metastin (45–54) amide, M-2816] was purchased from Sigma-Aldrich. KP-10 consists of the C-terminal 10-amino acids of KP-54. Human KP-54 was synthesized by the Advanced Biotechnology Centre, Imperial College, London, UK. BSA-FITC was purchased from Sigma (A9771). From the product data sheets, the solubility of KP-10 and KP-54 in water is 1mg/ml. We prepared stock solutions in sterile PBS at 100 μM, which is almost ten times lower than the solubility limit set by the manufacturer. The 100 μM stock solution was diluted in sterile PBS and 100 μl of the working solution was injected to ...

[3] = Study 4: pharmacokinetics of plasma kisspeptin after i.p. injection (radioimmunoassay); type: in vivo, mouse; details: male mice, 1 nmol i.p.
Method: Male mice received a single i.p. injection of 1 nmol KP-10 or 1 nmol KP-54. 100 μl of blood was collected from the lateral tail vein from groups of mice (n = 4) for each time point (0, 1 min, 2 min, 5 min, 10 min, 30 min, 60 min and 120 min). Terminal bleeds were collected from the vena cava. Blood was mixed with 5 μl EDTA, centrifuged at 10,000 x g for 10 min at 4°C to obtain the plasma fraction, and stored at -20°C until assayed. Kisspeptin concentrations were measured using an established in house competitive radioimmunoassay (RIA, [5]. Briefly, this RIA uses a sheep polyclonal antibody (GQ2), raised against human KP-54, which cross-reacts with human KP-54, KP-14 and KP-10.
3–5 month old wild-type (129S6/SvEv) male mice were used in this study. The mice were housed in open cages on a 12 hour light cycle (lights on at 0700 h) at a controlled temperature (22°C), and were provided with food and water ad libitum. All experiments were performed under the authority of a United Kingdom Home Office Project License and were approved by a Cambridge Animal Ethics Committee.

[4] = test system: c-FOS in GnRH neurons; assay: Study 3: c-FOS activation in GnRH neurons after peripheral kisspeptin (dual-label immunohistochemistry, BSA-FITC to define the BBB); type: in vivo, mouse; details: male mice
Method: Induction of expression of the immediate early gene c-Fos is regarded as a marker of neuronal activation. KISS1R activation results in c-FOS induction, which allows identification of the GnRH neurons that are activated by KP. We examined co-localization of c-FOS protein in GnRH neurons by immunohistochemistry 2h after peripheral injection of either KP-10 or KP-54. […] 1 nmol KP-54 was injected first, followed by injection of 100 μl of a 50mg/ml solution of BSA-FITC into the tail vein. The mice were perfused with 4% paraformaldehyde/PBS 2 hrs after KP-54 injection and the brains processed for c-FOS, GnRH and BSA-FITC detection. A negative control for fluorescence was also performed with unconjugated BSA.
Free-floating, dual-label chromogen immunohistochemistry was undertaken as described previously. Mice were perfused with 4% paraformaldehyde in PBS and the brains removed and post-fixed for 1h in the same fixative. The brains were cut as 40 μm free-floating coronal sections using a vibratome (VT1000S; Leica). […]
Sections were examined using an Axioscope 2 plus microscope (Carl Zeiss) using bright-field or fluorescence microscopy. […] Where appropriate, BSA-FITC was detected by epifluorescence microscopy at an excitation wavelength of 490 nm and an emission wavelength of 525 nm (green). About fifteen successive sections containing GnRH neurons were counted per animal (n = 6 per treatment). […]

SMILES: CC[C@H](C)[C@H](NC(=O)[C@H](CCC(N)=O)NC(=O)[C@H](CCCNC(=N)N)NC(=O)[C@H](CO)NC(=O)[C@H](Cc1c[nH]cn1)NC(=O)[C@@H]1CCCN1C(=O)[C@H](C)NC(=O)[C@H](CO)NC(=O)[C@H](CC(C)C)NC(=O)CNC(=O)[C@@H]1CCCN1C(=O)[C@H](CCC(N)=O)NC(=O)[C@H](CCC(N)=O)NC(=O)[C@H](CCCNC(=N)N)NC(=O)[C@H](CO)NC(=O)CNC(=O)[C@H](CO)NC(=O)[C@H](CO)NC(=O)[C@H](CCC(=O)O)NC(=O)[C@@H]1CCCN1C(=O)[C@@H]1CCCN1C(=O)[C@@H]1CCCN1C(=O)[C@H](CO)NC(=O)[C@H](CC(C)C)NC(=O)[C@H](CO)NC(=O)[C@@H](NC(=O)CN)[C@@H](C)O)C(=O)N1CCC[C@H]1C(=O)N[C@@H](C)C(=O)N1CCC[C@H]1C(=O)N[C@@H](CCC(N)=O)C(=O)NCC(=O)N[C@@H](C)C(=O)N[C@H](C(=O)N[C@@H](CC(C)C)C(=O)N[C@H](C(=O)N[C@@H](CCC(N)=O)C(=O)N[C@@H](CCCNC(=N)N)C(=O)N[C@@H](CCC(=O)O)C(=O)N[C@@H](CCCCN)C(=O)N[C@@H](CC(=O)O)C(=O)N[C@@H](CC(C)C)C(=O)N1CCC[C@H]1C(=O)N[C@@H](CC(N)=O)C(=O)N[C@@H](Cc1ccc(O)cc1)C(=O)N[C@@H](CC(N)=O)C(=O)N[C@@H](Cc1c[nH]c2ccccc12)C(=O)N[C@@H](CC(N)=O)C(=O)N[C@@H](CO)C(=O)N[C@@H](Cc1ccccc1)C(=O)NCC(=O)N[C@@H](CC(C)C)C(=O)N[C@@H](CCCNC(=N)N)C(=O)N[C@@H](Cc1ccccc1)C(N)=O)C(C)C)C(C)C [KP-54]
- half-life in the blood stream in humans [1]: 28 min
- solubility in water [2]: 1000 µg/mL (≈ 171 µM)
- level at time molar at 0.5 h ([3]; 129S6/SvEv, mouse, plasma, ip, RIA, mean ± SEM, n = 4, read-out: plasma kisspeptin level at 30 min post-injection): 13.2 ± 4.36 nM
- level at time molar at 1 h ([3]; 129S6/SvEv, mouse, plasma, ip, RIA, mean ± SEM, n = 4, read-out: plasma kisspeptin level at 60 min post-injection): 5.03 ± 0.787 nM
- level at time molar at 2 h ([3]; 129S6/SvEv, mouse, plasma, ip, RIA, mean ± SEM, n = 4, read-out: plasma kisspeptin level at 120 min post-injection): 1.19 ± 0.33 nM
- peak (maximum) plasma kisspeptin level ([3]; RIA (GQ2 antibody), mean ± SEM, n = 4 per time point): 12292 ± 2655 pmol/L
- time of peak plasma kisspeptin level post-injection ([3]; RIA, n = 4 per time point): 5 min
- plasma half-life ([3]; estimated from RIA plasma levels, RIA recognises all forms of Kp, may include breakdown products): around 32 min
- fraction of the injected peptide entering the bloodstream after intraperitoneal injection ([3]; assuming a total blood volume of approximately 5 ml): ~6%
- c-FOS activation of GnRH neurons behind the blood brain barrier (functional surrogate for BBB crossing) ([4]; 1 nmol KP-54 plus i.v. BSA-FITC (does not cross the BBB), 2 h, n = 3): c-FOS-positive GnRH neurons in hypothalamic areas that were negative for BSA-FITC
- percentage of GnRH neurons positive for c-FOS (all regions) ([4]; 2 h after peripheral injection of 1 nmol, n = 6, vehicle 0.54 ± 0.15%): 22.07 ± 2.96%
